Measured values taken from patent publication EP0546474A1, “Pseurotin F1/F2, new metabolites from Aspergillus fumigatus, process for their preparation and their use as apomorphine antagonists” (HOECHST AKTIENGESELLSCHAFT, priority 1991, dated 1993).

Experiments:
Mäusen = experiment: Apomorphine antagonism: inhibition of apomorphine-induced climbing in mice; type: in vivo; details: compound given 30 min (i.p.) or 60 min (p.o.) before apomorphine
Description: Die Wirkung der Verbindungen der Formeln la und Ib als Apomorphin Antagonisten wird an Mäusen getestet. Hierzu wird zunächst Apomorphin als 1 %ige Lösung (Verdünnungsmittel:Tylose, z.B. Methocel, Hoechst AG, Frankfurt, Deutschland) einmalig […] injiziert. Die Dosis ist so gewählt, daß sie bei 95 % der Mäuse für ca. 30 Minuten eine anhaltende Klettertätigkeit auslöst (1,5 mg Apomorphin/kg Maus; subcutane Injektion). Tiere, die noch vor der Apomorphingabe eine konstante Klettertätigkeit aufweisen, werden nicht im Test berücksichtigt. Pseurotin F1 oder F2 wird 30 bzw. 60 Min. vor Apomorphin appliziert (i.p. bzw. p.o.). Es wird viermal abgelesen: unmittelbar vor sowie 10, 20 und 30 Min nach Apomorphin-Injektion. Dabei wird das Kletterverhalten pro Maus beurteilt:
Testkriterium ist, ob eine Hemmung des durch Apomorphin verursachten Kletterns eintritt.

[1] = Stability in the solid state and in solution; type: physicochemical; details: solid state and solutions in the pH range between 3 and 8, in particular 5 and 7
Description: Die Verbindungen der Formeln la und Ib sind im festen Zustand und in Lösungen im pH-Bereich zwischen 3 und 8, insbesondere 5 und 7, stabil und lassen sich damit in übliche galenische Zubereitungen einarbeiten.

[2] = Solubility in organic solvents; type: physicochemical; details: in CH2C12, CHCl3, Essigsäureethylester, Aceton, Ethanol and Isopropanol; isolated as amorphous solid
Description: Die Pseurotine F1 /F2 werden als amorpher Feststoff isoliert und sind z.B. löslich in CH2C12, CHCl3, Essigsäureethylester, Aceton, Ethanol und Isopropanol. • FAB-MS: m/e = 418 (37 %, [M + H]^+), 400 (12 %) 382 (14 %) • Pseurotin F1: Rf = 0,29; Ethylacetat-H/Heptan (2 : 1) • Pseurotin F2: Rf = 0,20; Ethylacetat-H/Heptan (2:1) (dünnschichtchromatographisch aufgetrennt) Molmasse: 417, 12 (C21 H23NO8)

[3] = 10 min after apomorphine injection (1,5 mg/kg, s.c.), observed in the majority of treated mice
[4] = 20 min after apomorphine injection (1,5 mg/kg, s.c.), observed in nearly all animals

Row | SMILES | Kletterverhalten pro Maus (Hemmung des durch Apomorphin verursachten Kletterns) (Mäusen; [3]) | Kletterverhalten pro Maus (Hemmung des durch Apomorphin verursachten Kletterns) (Mäusen; [4]) | Stabilität [1] | Löslichkeit [2]
1 | CC/C=C\[C@H](O)[C@H](O)C1=C(C)C(=O)[C@]2(O1)C(=O)N[C@](O)(C(=O)c1ccccc1)[C@@H]2O [Pseurotin F1] | nur noch 1 oder 2 Pfoten an der Wand | deutliche Symptome in Form der Kletterhemmung (4 Pfoten am Boden) | stabil | löslich
2 | CC/C=C\[C@H](O)[C@H](O)C1=C(C)C(=O)[C@]2(O1)C(=O)N[C@@](O)(C(=O)c1ccccc1)[C@@H]2O [Pseurotin F2] | nur noch 1 oder 2 Pfoten an der Wand | deutliche Symptome in Form der Kletterhemmung (4 Pfoten am Boden) | stabil | löslich
